Measured values reported in patent US20050014811A1, “Substituted benzimidazole compounds and their use for the treatment of cancer” (Aventis Pharma S.A., priority 2001, published 2005).

Experiments:
CDK4/CyclinD1 = CDK4/CyclinD1 (Homo sapiens, UniProt P11802); assay: CDK4/CyclinD1 Flashplate assay, 96-well format, biotinylated-Rb peptide substrate; assay type: biochemical
In short: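 Biotinylated Rb peptide bound to streptavidin Flashplate; CDK4/CyclinD1 (70 ng/well) preincubated 30 min on ice with compound at 10, 3, 1, 0.3 and 0.1 μM final. Reaction with 1 μM cold ATP plus 33P-ATP for 45 min at RT; incorporated 33P counted, duplicates.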

CDK2/CyclinE = CDK2/CyclinE (Homo sapiens, UniProt P24941); assay: CDK2/CyclinE Flashplate assay, 96-well format, biotinylated-Rb peptide substrate; assay type: biochemical
In short: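 Biotinylated Rb peptide was captured on streptavidin Flashplates, and CDK2/CyclinE (200 ng/well) was preincubated 30 min on ice with inhibitor at 10, 3, 1, 0.3 or 0.1 μM final. Reactions ran 45 min at RT with 1 μM ATP plus 1 μCi ^33P-ATP. After washing, incorporated ^33P was counted, in duplicate.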

Sequence of CDK4/CyclinD1 (P11802 whole entry, species assumed): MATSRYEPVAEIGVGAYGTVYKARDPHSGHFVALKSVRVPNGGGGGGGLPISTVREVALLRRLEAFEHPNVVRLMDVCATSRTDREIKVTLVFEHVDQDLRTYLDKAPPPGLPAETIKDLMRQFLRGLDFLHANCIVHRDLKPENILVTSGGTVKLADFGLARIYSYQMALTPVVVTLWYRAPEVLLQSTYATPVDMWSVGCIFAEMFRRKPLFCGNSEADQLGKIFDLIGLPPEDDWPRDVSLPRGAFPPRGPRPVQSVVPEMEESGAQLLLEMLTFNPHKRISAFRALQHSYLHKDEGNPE
Sequence of CDK4/CyclinD1 (P24385 whole entry partner, species assumed): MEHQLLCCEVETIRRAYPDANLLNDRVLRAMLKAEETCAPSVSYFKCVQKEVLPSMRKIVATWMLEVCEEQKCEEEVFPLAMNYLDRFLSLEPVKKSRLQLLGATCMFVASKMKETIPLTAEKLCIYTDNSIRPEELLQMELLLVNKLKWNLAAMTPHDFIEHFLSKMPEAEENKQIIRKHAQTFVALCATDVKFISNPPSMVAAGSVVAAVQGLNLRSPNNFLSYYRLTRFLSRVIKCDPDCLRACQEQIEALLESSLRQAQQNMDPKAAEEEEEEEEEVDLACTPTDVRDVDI

IC50 (CDK4/CyclinD1)	IC50 (CDK2/CyclinE)	inhibition at 10 µM (CDK4/CyclinD1)	SMILES
1800 nM	200 nM	–	O=C(NCCN1CCCC1)Nc1nc2cc(OS(=O)(=O)c3ccc(NCC4CCCO4)cc3)ccc2[nH]1 (stereo not shown) [Example 59-g, 4-[(Tetrahydro-furan-2-ylmethyl)-amino]-benzenesulfonic acid 2-[3-(2-pyrrolidin-1-yl-ethyl)-ureido]-1H-benzoimidazol-5-yl ester]
–	700 nM	91%	O=C(Nc1ccc(F)cc1)Nc1nc2cc(OS(=O)(=O)c3ccc(NC4CCCC4)cc3)ccc2[nH]1 [Example 58-f, 4-Cyclopentylamino-benzenesulfonic acid 2-[3-(4-fluoro-phenyl)-ureido]-1H-benzoimidazol-5-yl ester]
270 nM	10 nM	–	O=C(NCCCO)Nc1nc2cc(OS(=O)(=O)c3ccc(NC4CCCC4)cc3)ccc2[nH]1 [Example 58-y, 4-Cyclopentylamino-benzenesulfonic acid 2-[3-(3-hydroxy-propyl)-ureido]-1H-benzoimidazol-5-yl ester]
800 nM	160 nM	–	O=C(NCCS(=O)(=O)O)Nc1nc2cc(OS(=O)(=O)c3ccc(-n4ccnc4)cc3)ccc2[nH]1 [Example 47, 4-Imidazol-1-yl-benzenesulfonic acid 2-[3-(2-sulfo-ethyl)-ureido]-1H-benzoimidazol-5-yl ester]
2920 nM	700 nM	–	COC(=O)Nc1nc2cc(OS(=O)(=O)c3ccc(NC4CCCC4)cc3)ccc2[nH]1 [Example 19, Methyl-5-(4-cyclopentylaminophenylsulfonyloxy) benzimidazole-2-carbamate]
640 nM	60 nM	–	O=C(Nc1nc2cc(OS(=O)(=O)c3ccc(NC4CCCC4)cc3)ccc2[nH]1)NC1CC1 [Example 33, 4-Cyclopentylamino-benzenesulfonic acid 2-(3-cyclopropyl-ureido)-1H-benzoimidazol-5-yl ester]
250 nM	150 nM	–	CC(C)NCCNC(=O)Nc1nc2cc(OS(=O)(=O)c3ccc(NC4CCCC4)cc3)ccc2[nH]1 [Example 58-al, 4-Cyclopentylamino-benzenesulfonic acid 2-[3-(2-isopropylamino-ethyl)-ureido]-1H-benzoimidazol-5-yl ester]
–	910 nM	84%	O=C(Nc1cccc(Cl)c1)Nc1nc2cc(OS(=O)(=O)c3ccc(NC4CCCC4)cc3)ccc2[nH]1 [Example 42, 4-Cyclopentylamino-benzenesulfonic acid 2-[3-(3-chloro-phenyl)-ureido]-1H-benzoimidazol-5-yl ester]
1000 nM	240 nM	–	O=C(Nc1ccccc1)Nc1nc2cc(OS(=O)(=O)c3ccc(-n4ccnc4)cc3)ccc2[nH]1 [Example 57-a, 4-Imidazol-1-yl-benzenesulfonic acid 2-(3-phenyl-ureido)-1H-benzoimidazol-5-yl ester]
300 nM	1800 nM	–	COC(=O)Nc1nc2cc(OS(=O)(=O)c3ccc(NCCS(=O)(=O)O)cc3)ccc2[nH]1 [Example 15, Methyl-5-(4-[2-sulfonylethyl]aminophenylsulfonyloxy) benzimidazole-2-carbamate]
130 nM	16 nM	–	NC(=O)CCNC(=O)Nc1nc2cc(OS(=O)(=O)c3ccc(NC4CCCC4)cc3)ccc2[nH]1 [Example 58-ad, 4-Cyclopentylamino-benzenesulfonic acid 2-[3-(2-carbamoyl-ethyl)-ureido]-1H-benzoimidazol-5-yl ester]
1620 nM	290 nM	–	COc1ccc(NC(=O)Nc2nc3cc(OS(=O)(=O)c4ccc(NC5CCCC5)cc4)ccc3[nH]2)cc1 [Example 39, 4-Cyclopentylamino-benzenesulfonic acid 2-[3-(4-methoxy-phenyl)-ureido]-1H-benzoimidazol-5-yl ester]
29 nM	20 nM	–	COC(=O)CNC(=O)Nc1nc2cc(OS(=O)(=O)c3ccc(NC4CCCC4)cc3)ccc2[nH]1 [Example 58-o, 4-{3-[5-(4-Cyclopentylamino-benzenesulfonyloxy)-1H-benzoimidazol-2-yl]-ureido}-acetic acid methyl ester]
–	1900 nM	51%	O=C(Nc1nc2cc(OS(=O)(=O)c3ccc(-n4ccnc4)cc3)ccc2[nH]1)NC1CCCCC1 [Example 57-b, 4-Imidazol-1-yl-benzenesulfonic acid 2-(3-cyclohexyl-ureido)-1H-benzoimidazol-5-yl ester]
> 3000 nM	> 10000 nM	–	COC(=O)Nc1nc2cc(OS(=O)(=O)c3ccc(NCCc4ccccc4)cc3)ccc2[nH]1 [Example 20, Methyl-5-(4-[2-phenylethyl]aminophenylsulfonyloxy) benzimidazole-2-carbamate]
–	20 nM	80%	COC(=O)[C@@H]1CCCN1C(=O)Nc1nc2cc(OS(=O)(=O)c3ccc(NC4CCCC4)cc3)ccc2[nH]1 [Example 58-r, 1-[5-(4-Cyclopentylamino-benzenesulfonyloxy)-1H-benzoimidazol-2S-yl-carbamoyl]-pyrrolidine-2-carboxylic acid methyl ester]
1200 nM	30 nM	–	CN1CCN(CCCNC(=O)Nc2nc3cc(OS(=O)(=O)c4ccc(NCC5CCCO5)cc4)ccc3[nH]2)CC1 (stereo not shown) [Example 59-m, 4-[(Tetrahydro-furan-2-ylmethyl)-amino]-benzenesulfonic acid 2-{3-[3-(4-methyl-piperazin-1-yl)-propyl]-ureido}-1H-benzoimidazol-5-yl ester]
–	600 nM	52%	O=C(NCc1ccccc1Cl)Nc1nc2cc(OS(=O)(=O)c3ccc(-n4ccnc4)cc3)ccc2[nH]1 [Example 57-g, 4-Imidazol-1-yl-benzenesulfonic acid 2-[3-(2-chloro-benzyl)-ureido]-1H-benzoimidazol-5-yl ester]
380 nM	370 nM	–	O=C(NCCN1CCCCC1)Nc1nc2cc(OS(=O)(=O)c3ccc(NC4CCCC4)cc3)ccc2[nH]1 [Example 58-aj, 4-Cyclopentylamino-benzenesulfonic acid 2-[3-(2-piperidin-1-yl-ethyl)-ureido]-1H-benzoimidazol-5-yl ester]
300 nM	40 nM	–	O=C(NCc1ccccn1)Nc1nc2cc(OS(=O)(=O)c3ccc(NC4CCCC4)cc3)ccc2[nH]1 [Example 50, 4-Cyclopentylamino-benzenesulfonic acid 2-(3-pyridin-2-ylmethyl-ureido)-1H-benzoimidazol-5-yl ester]
500 nM	5 nM	–	CNC(=O)Nc1nc2cc(OS(=O)(=O)c3ccc(NCC4CCCO4)cc3)ccc2[nH]1 (stereo not shown) [Example 54, 4-[(Tetrahydro-furan-2-ylmethyl)-amino]-benzenesulfonic acid 2-(3-methyl-ureido)-1H-benzoimidazol-5-yl ester]
470 nM	2000 nM	–	COC(=O)Nc1nc2cc(OS(=O)(=O)c3ccc(NCC(=O)O)cc3)ccc2[nH]1 [Example 7, Methyl-5-(4-[N-Glycinyl]-phenylsulfonyloxy) benzimidazole-2-carbamate]

SMILES	IC50 (CDK4/CyclinD1)	IC50 (CDK2/CyclinE)	inhibition at 10 µM (CDK4/CyclinD1)
CC(C)(C)OC(=O)NCC(=O)Nc1nc2cc(OS(=O)(=O)c3ccc(NC4CCCC4)cc3)ccc2[nH]1 [Example 24, 4-Cyclopentylamino-benzenesulfonic acid 2-(2-tert-butoxycarbonylamino-acetylamino)-1H-benzoimidazol-5-yl ester]	600 nM	400 nM	–
